The numbers were not newly measured in patent US20090247593A1, “N-THIAZOL-2-YL-BENZAMIDE DERIVATIVES” (H. Lundbeck A/S, priority 2003, published 2009), which cites them from elsewhere.

Where two headings read alike, the source gives them in different places.

For series [1], the system named is mice. The settings on record: mouse forced swimming test.
Series [2] relates to non-human primates treated with MPTP.
In series [3] the test system is unilateral 6-OHDA lesioned mice and rats. The settings on record: elicited by a subthreshold dose of levodopa.
Series [4] concerns MPTP treated mice and 6-OHDA-lesioned rats.
For series [5], the system named is mice. The settings on record: for total immobility time: mouse tail suspension test.
Where [6] appears, read: mice previously screened for having high immobility time.

Regarding `Nc1nc(Cl)nc2c1ncn2[C@@H]1O[C@H](CO)[C@@H](O)[C@H]1O` [2-chloroadenosine], the immobility time result in the series with mice [1] is on record as “increased immobility time”.

Take `CCn1c(=O)c2c(nc(/C=C/c3ccc(OC)c(OC)c3)n2C)n(CC)c1=O` [KW-6002, 8-[(1E)-2-(3,4-dimethoxyphenyl)ethenyl]-1,3-diethyl-3,7-dihydro-7-methyl-1H-purine-2,6-dione]: the motor impairment result in series [2] (induced in non-human primates by MPTP) is listed as “significantly improves motor impairment”. The dyskinesias entry in series [2] (non-human primates, MPTP) was “without causing dyskinesias”. The contralateral rotations entry in series [3] is on record as “enhance contralateral rotations”. In series [4], the “functional loss of dopaminergic nerve terminals in the striatum” value is “prevented functional loss of dopaminergic nerve terminals in the striatum” and the “gliosis normally induced around degenerating neurons” value was “prevented gliosis”. The total immobility time entry with mice [5] was “reduced the total immobility time”.

`Nc1nc2c(cnn2CCc2ccccc2)c2nc(-c3ccco3)nn12` [SCH58261, 2-(2-furanyl)-7-(2-phenylethyl)-7H-pyrazolo[4,3-e][1,2,4]triazolo[1,5-c]pyrimidin-5-amine]: the contralateral rotations result in series [3] is on record as “enhance contralateral rotations”. The immobility result with mice [5] (setting [6]) is “reduce immobility”; in the series with mice [5] (mice selectively bred for their helplessness), “reduced immobility”. Besides, in the series with mice [5], the total immobility time result is on record as “reduced the total immobility time”.

Turning to `Nc1nc(NCCc2ccc(O)cc2)nc2nc(-c3ccco3)nn12` [ZM241385, 4-(2-[7-amino-2-(2-furyl) [1,2,4]triazolo[2,3-a][1,3,5]triazin-5-ylamino]-ethyl)phenol], the immobility entry in the series on mice [5] (setting [6]) is recorded as “reduce immobility”.

Regarding `Nc1ncnc2c1ncn2[C@@H]1O[C@H](CO)[C@@H](O)[C@H]1O` [adenosine], the immobility time result with mice [1] is “increased immobility time”.
